Test in all cases: NCI anticancer screen, dose series, 48 h
For test [1], the system named is LOX IMVI melanoma.
For test [2], the system named is COLO 205 colon.
Test [3] relates to BT-549 breast.
Test [4] relates to U251 CNS.
The subject of test [5] is OVCAR-4 ovarian.
The test system of test [6] is NCI-H522 lung.
Test [7] has as its system CCRF-CEM leukemia.
Test [8] relates to NCI-H460 lung.
Test [9] relates to IGROV1 ovarian.
For test [10], the system named is NCI-H226 lung.

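Following 48 hours of exposure in 96-well plates, responses at five concentrations were used to interpolate endpoints linearly. At the GI50, growth is halved. At the TGI there is no net growth.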

On to `COc1ccc(/C=C\c2cc(OC)c(OC)c(OC)c2)c(NS(=O)(=O)c2ccc(C)cc2)c1O`, for which the GI50 in test [1] was 50.9 nM; in test [2], 0.723 µM; in test [3] it was 35 nM; in test [4], 0.0418 µM; in [5], 0.233 µM; in test [6], 37.7 nM. In addition, the results for the GI50 in [7], in test [8] and in [9] were 40.7 nM, 35.1 nM and 0.075 µM, respectively. Also, the TGI is more than 100 µM in test [1]; 3.89 µM in test [2]; 3.04 µM in test [3]; more than 100 µM in [4]; more than 100 µM in test [5]; more than 35 µM in test [6]. In addition, the TGI was more than 100 µM in test [7], more than 37.9 µM in test [8] and more than 100 µM in test [9].
With `CC1OC(O)C(O)C(O)C1O` (stereo not drawn), the TGI in [1], in [2], in test [3], in test [4], in test [10] and in [5] was more than 100 µM each time. Besides, the TGI in test [6], in test [8] and in test [9] was more than 100 µM throughout.
Turning to `COc1ccc(C(Nc2ncccn2)c2cc3c(cc2O)OCO3)cc1` (stereo not drawn), the TGI was 32.2 µM in test [1]; 70.6 µM in [2]; 64.3 µM in [3]; 28.7 µM in [4]; 44.6 µM in [10]; more than 100 µM in test [5]. Moreover, the TGI in test [6] is 31.7 µM; in [8], 47.2 µM; in test [9] it was 59.3 µM.
Regarding `CC(C)(C)CC(C)(C)c1ccc(OCCOCCSC(=N)N)cc1`, the GI50 in test [1] was 1720 nM; in [2], 1.65 µM; in test [3] it was 3840 nM; in test [4], 1.65 µM; in test [5] it was 1.54 µM; in [6], 1710 nM. Besides, the values for the GI50 in test [7], in test [8] and in [9] were 2460 nM, 1750 nM and 2.3 µM, respectively. In addition, the TGI in test [1] came out at 3.09 µM; in test [2], 3.12 µM; in [3], 16 µM; in [4], 3.04 µM; in [5], 3.1 µM; in [6], 3.18 µM. For the same molecule, the TGI in test [7] is 6.02 µM; in test [8], 3.29 µM; in test [9], 4.81 µM.
`c1ccc(-c2nc(N3CCNCC3)c3nc(-c4ccccc4)oc3n2)cc1`: the GI50 in [1] was 1660 nM; in test [2], 2.06 µM; in test [3] it was 1670 nM; in test [5], 1.9 µM; in test [6], 1810 nM; in test [7], 1380 nM. In addition, the results for the GI50 in [8] and in [9] were 1730 nM and 1.65 µM, respectively. The TGI was found to be 3.17 µM in test [1]; 4.12 µM in test [2]; 3.24 µM in test [3]; 3.63 µM in [5]; 3.86 µM in [6]; 3.83 µM in [7]. Further, the TGI is 3.38 µM in test [8] and 3.14 µM in test [9].
For the molecule `O=C(/C=C/c1cccc(Cl)c1)c1ccc(Cl)cc1Cl`, the GI50 in test [1] was 1880 nM; in test [2], 12.2 µM; in [3], 8940 nM; in test [4], 8.37 µM; in [5], 13.4 µM; in test [6] it was 1850 nM. The values for the GI50 in [8] and in test [9] were 13200 nM and 7.56 µM, respectively. For the same molecule, the TGI stood at 4.69 µM in test [1]; 40.6 µM in test [2]; 20.7 µM in [3]; 21.1 µM in test [4]; 41.5 µM in [5]; 15.6 µM in [6]. Besides, the TGI in [8] and in [9] was more than 50 µM in each case.
As for `CC(=O)OC1CCC2(C)C(=CC(C3C=C4CC(OC(C)=O)CCC4(C)C4=C3C3CC5OC6(CCC(C)CO6)C(C)C5C3(C)CC4)C3=C2CCC2(C)C3CC3OC4(CCC(C)CO4)C(C)C32)C1` (stereo not drawn), the TGI worked out at 30.1 µM in test [1]; 36.1 µM in test [2]; 29.7 µM in [3]; 27.8 µM in [4]; 41.5 µM in [10]; 28.2 µM in test [5]. Moreover, the TGI in test [6] was 19.4 µM; in test [9], 23.6 µM.
For the molecule `O=C1/C(=C/c2cccs2)CCC/C1=C\c1cccs1`, the GI50 is more than 100000 nM in test [1]; more than 100 µM in test [2]; more than 58300 nM in test [3]; 30.6 µM in test [4]; 49.1 µM in test [10]; 14.6 µM in [5]. The GI50 is 40100 nM in [6], more than 76400 nM in test [8] and 30.3 µM in test [9]. Moreover, the TGI in [1] is more than 100 µM; in [2], more than 100 µM; in test [3], more than 100 µM; in test [4] it was more than 100 µM; in test [10], more than 100 µM; in test [5], 45.2 µM. In addition, the figures for the TGI in test [6], in test [8] and in [9] were more than 100 µM, more than 100 µM and 98.5 µM, respectively.
Regarding `COc1cc(C2C(C#N)=C(N)OC3=C2C(=O)c2ccccc2C3=O)cc(OC)c1OC` (stereo not drawn), the GI50 in [1] is 629 nM; in test [2], 3.55 µM; in [3], 1430 nM; in [4] it was 3.38 µM; in test [10], 1.39 µM; in test [5], 3.45 µM. Further, the results for the GI50 in test [6], in [8] and in test [9] were 260 nM, 532 nM and 2.24 µM, respectively. In addition, the TGI came out at 14 µM in test [1]; 19.7 µM in test [2]; 18.5 µM in [3]; 44 µM in test [4]; 23.7 µM in [10]; 12.5 µM in [5]. In addition, the TGI in [6] came out at 16.8 µM; in [8] it was 14.5 µM; in test [9], 19.2 µM.
With `Cn1ccnc1C(=O)/C=C/c1ccc(C(=O)Nc2nc3ccccc3[nH]2)cc1`, the GI50 in [1] was 2380 nM; in test [3] it was 1730 nM; in [4], 0.916 µM; in [5], 1.12 µM; in test [6] it was 8540 nM; in test [7] it was 1280 nM. Also, the GI50 in test [8] is 1600 nM; in [9], 5.67 µM. Further, the TGI in test [1], in test [3], in test [4], in test [5], in test [6] and in test [7] was more than 25 µM throughout. The TGI in test [8] and in [9] was more than 25 µM in each case.
Consider `COc1cc2c(cc1C)n(O)c(C)c(C(=O)C/C(=N/NC(=O)C[N+](C)(C)C)C(=O)Nc1cccc(Cl)c1C)[n+]2=O`, for which the TGI in test [1], in [2], in test [4], in test [10], in [5] and in [6] was more than 100 µM throughout. Moreover, the TGI in [7], in test [8] and in test [9] was more than 100 µM throughout.
Turning to `CCC1(OC(C)=O)C(=O)OCc2c1cc1n(c2=O)Cc2cc3ccccc3nc2-1` (stereo not drawn), the TGI in [1] is 13.5 µM; in [2] it was more than 100 µM; in test [4], 2.64 µM; in test [10], 4.55 µM; in test [5], more than 100 µM; in [6] it was 15.2 µM. Also, the results for the TGI in test [7], in test [8] and in test [9] were 1.93 µM, 7.15 µM and more than 100 µM, respectively.
Take `C=C(C)C1/C=C(/C(C)C)CC[C@]2(C)O[C@@H]2CC[C@H](C)CC1=O` (stereo partly drawn): the GI50 was 23300 nM in [1]; 54.5 µM in [2]; 54.7 µM in [4]; more than 100 µM in test [10]; 72.4 µM in test [5]; more than 100000 nM in test [6]. The GI50 in test [7] was 18500 nM; in test [8], 50300 nM; in [9] it was 77.8 µM. For the same molecule, the TGI in test [1] was 57.6 µM; in test [2], more than 100 µM; in test [4] it was more than 100 µM; in test [10] it was more than 100 µM; in test [5], more than 100 µM; in [6], more than 100 µM. Moreover, the TGI is 37.3 µM in [7], more than 100 µM in test [8] and more than 100 µM in test [9].
Turning to `Fc1ccc(-c2ncn(C3CCNCC3)c2-c2ccnc(Oc3cccc(F)c3)n2)cc1`, the GI50 is 10500 nM in test [1]; 5.09 µM in [2]; more than 24000 nM in test [3]; 9.74 µM in test [4]; 16.8 µM in test [5]; more than 14700 nM in [6]. Besides, the figures for the GI50 in [8] and in test [9] were 7460 nM and 12.4 µM, respectively. For the same molecule, the TGI in test [1] is more than 25 µM; in [2], 9.67 µM; in [3], more than 25 µM; in [4], more than 25 µM; in test [5] it was more than 25 µM; in [6] it was more than 25 µM. Further, the TGI in test [8] was more than 21.8 µM; in test [9], more than 25 µM.

Source of the values: PubChem BioAssay (NCI).
